For series [1] the following is noted: value from literature; cited from earlier work.
The conditions of series [2]: values from literature, cited from earlier work; for CMC NaCl 0.15M: in NaCl 0.15 M; for CMC H2O: in water.
The target of another series is T1, bovine serum albumin (Bos taurus, UniProt P02769).
T1 construct: 5% bovine serum albumin-saline solution
Briefly: Albumin binding by equilibrium dialysis. It is filed as in vitro ADME. The following applies: 100 μM BA in 5% bovine serum albumin-saline, 25° C.

Another series in a line: Critical micellar pH. The following applies: CMpH=pKa+log CMC/WS. It counts as physicochemical. An excerpt: This value can be experimentally determined by evaluating the pH at which a given BA starts to precipitate from a micellar solution. It can be calculated from the CMC Water solubility of the protonated species and pKa using the formula: CMpH=pKa+log CMC/WS.
The subject of series [3] is Intestinal bacteria (human stools cultures). Briefly: Metabolic stability in human stools culture (7α-dehydroxylation). It is filed as in vitro ADME.
Procedure: Homogenized fresh human stools (500 mg) were transferred into sterile vials to which 5 mL of sterilized chopped meat-glucose medium (Scott Lab., Fiskville, R.I.) was added. BA were then added at a final concentration of 0.05 mM. Vials were incubated at 37 C; then, at 0, 4, 8, 16, 20, 24, and 72 h after the addition of the BA, the reaction was stopped with 150 L of 30% KOH. The samples were centrifuged at 3500 rpm for 10 min; from the supernatant the BA were isolated by C-18 solid-phase extraction and analyzed by TLC and HPLC-ES-MS/MS. Thin-layer chromatography (TLC), utilizing silica gel 0.25 m thickness plates (Merck, Darmstat, Germany), was employed as the first screening test. The solvent system used for the separation of conjugated BA was composed of propionic acid/isoamyl acetate/water/N-propanol (3:4:1:2, v/v/v/v; solvent I), and that of the unconjugated BA was acetic acid/carbon tetrachloride/isopropyl ether/isoamyl acetate/water/N-propanol/benzene (1:4:6:8:2:2, v/v/v/v/v/v; solvent II).
The nature of series [4]: Critical micellar concentration by surface tension (maximum bubble-pressure). It counts as physicochemical. To be noted: for CMC NaCl 0.15M: in NaCl 0.15 M; for CMC H2O: in water. The procedure:
This value was determined by surface tension measurements using a maximum bubble-pressure method. The tensiometer was a Sensadyne 6000 (Chem-Dyne Research Corp., Milwaukee, Wis.) equipped with two glass probes of 0.5 and 4.0 mm diameters connected to a source of nitrogen. The bubble frequency was 1 bubble/second in distilled water at 26° C. (P=2.7 atm) and the calibration was made with double-distilled water and methanol. The surface tension of BA sodium salts solutions both in water and in NaCl 0.15 M was measured at various concentrations range, 0.2-75 mM and 0.3-100 mM respectively. The surface tension values were plotted against the logarithm of the bile salt concentration; the regression lines corresponding to the two parts of the curve (monomeric and micellar phases) were calculated using the method of least squares, and the intersection of the lines was taken as the CMC value.

A short description of series [5]: 1-Octanol/water partition coefficient, shake-flask. To be noted: pH 8, 0.1 mM bile salt.
Procedure: (§1) 1-Octanol/water partition coefficient (log P) was evaluated using a conventional shake-flask procedure. […] The aqueous buffer was previously pre-saturated with 1-octanol, 5 ml of 1-octanol pre-saturated with water was then added and the samples were left to equilibrate for 2 weeks under continuous stirring at room temperature After centrifugation the two phases were carefully separated. BA concentration in the water phase was measured with HPLC-ESI-MS/MS using C18 column (150 mm×2 mm i.d., 4 μm) and mobile phases: A: water containing 15 mM acetic acid pH 5, B: acetonitrile. The flow rate was 150 μl/min and the column was maintained at 45° C. The mass spectrometry acquisition was performed in the multiple reaction monitoring mode using the ESI source in negative ionization.
Series [6] concerns ANIT-induced cholestasis. To be noted: previous unpublished studies by Fiorucci et al.; cited from earlier work.
Series [7] is described as follows: Water solubility of protonated bile acids. The following applies: 0.1 M HCl, pH 1, simulated gastric fluid, thermodynamic from solid.
Procedure: (§2) Solid BA were suspended in 5 ml of 0.1 M HCl. The saturated solutions, after incubation for 1 week, were filtered on a Millipore filter (0.22 μm) and the concentration of BA was measured by HPLC-ESI-MS/MS using C18 column (150 mm×2 mm i.d., 4 μm) and mobile phases of water containing 15 mM acetic acid pH 5 and acetonitrile. The flow rate was 150 μl/min. The mass spectrometry acquisition was performed in the multiple reaction monitoring mode using the ESI source in negative ionization. Water solubility was expressed as μmol/liter
Series [8] in a line: Hepatic metabolism and biliary secretion in bile fistula rat after iv infusion. It is filed as in vivo. The following applies: for Main form / hepatic metabolite secreted in bile: at the administered dose. The procedure: The BA were administered by infusion to bile fistula rat and bile collected at 15 min intervals for 7 hours. The bile flow was measured and bile analyzed using HPLC-ES-MS-MS for the identification of the rate of biliary secretion and to evaluate the major hepatic metabolites.
Bile acids and their metabolites were determined by a liquid chromatography-tandem mass spectrometry (HPLC-MS/MS) method using electrospray (ESI) source in negative ionization mode. Rat bile samples were brought to room temperature and diluted 1:100 v/v-1:1000 v/v with 15 mM ammonium acetate buffer (pH=5). Then, 10 μL were injected into the chromatographic column. Liquid chromatography was performed using a Waters Alliance 2695 separation module coupled with autosampler. Bile acids were analyzed using a Synergi Hydro-RP C18 column (150×2.0 mm i.d., 4 μm particle size), protected by a SecurityGuard ODS 4×2.0 mm i.d. precolumn, both supplied from Phenomenex. Bile acids were separated in elution gradient using 15 mM ammonium acetate buffer (pH=5.00) as mobile phase A and acetonitrile as mobile phase B. Mobile phase B was increased from 30% to 64% in 12 min, then to 70% in 8 min, and finally brought to 100% in 10 min and held constant for 1 min. […] The column effluent was analysed by ESI-MS/MS using a Quattro-LC (Micromass) triple quadruple mass spectrometer operating in Multiple Reaction Monitoring (MRM) acquisition mode. MassLynx software version 4.0 was used for data acquisition and processing.

Series [9] relates to FXR related genes in liver. Briefly: FXR target gene expression in liver of intact mice (Real-Time PCR). It counts as in vivo, Balb/c mice. The following applies: 4 days.
Source text: Six- to eight-week old female Balb/c mice were obtained from Charles River (Charles River Laboratories, Inc., Wilmington, Mass.). […] All procedures in this study were approved by the Animal Study Committees of the University of Perugia (Italy) according to governmental guidelines for animal care. […] At the end of the experiment mice were sacrificed and liver was removed to perform Real Time PCR analysis of FXR target genes.
In series [10] the test system is ANIT-induced cholestasis. In words: ANIT-induced cholestasis in rat. It counts as in vivo, Wistar rats. The following applies: ANIT treated rats, ammonium salt. The procedure: Wistar Rats studies were approved by the Animal Study Committee of the University of Perugia. Male Wistar rats (200-250 g) were obtained from Charles River Breeding Laboratories (Portage, Mich.) and maintained on standard laboratory rat chow on a 12-h light/dark cycle. […] Control rats (N=4) were administered vehicle (physiologic solution I.P.). At the end of the study, rats were sacrificed under anaesthesia with sodium pentobarbital (50 mg/kg i.p.) and terminally bled via cardiac puncture; the liver was removed and weighted for examination and blood samples were taken. Rat genes expression was evaluated by quantitative real-time polymerase chain reaction (RT-PCR) as previously described herein.

The target of a further series is T2, FXR (Homo sapiens, UniProt Q96RI1).
T2 construct: expressed in transfected cells; host or cells: HepG2
T2 sequence (Q96RI1 1-486): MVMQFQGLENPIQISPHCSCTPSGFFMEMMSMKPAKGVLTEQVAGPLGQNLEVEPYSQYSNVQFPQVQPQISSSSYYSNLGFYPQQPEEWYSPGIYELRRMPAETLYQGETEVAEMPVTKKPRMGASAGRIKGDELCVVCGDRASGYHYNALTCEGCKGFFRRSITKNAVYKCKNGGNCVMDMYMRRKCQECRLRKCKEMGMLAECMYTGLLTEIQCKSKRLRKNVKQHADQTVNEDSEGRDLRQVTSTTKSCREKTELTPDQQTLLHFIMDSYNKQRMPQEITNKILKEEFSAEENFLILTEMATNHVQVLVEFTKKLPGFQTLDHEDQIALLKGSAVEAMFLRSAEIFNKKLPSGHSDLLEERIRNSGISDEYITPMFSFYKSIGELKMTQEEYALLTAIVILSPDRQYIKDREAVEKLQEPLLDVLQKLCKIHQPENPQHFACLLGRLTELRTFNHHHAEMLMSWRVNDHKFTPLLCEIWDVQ
T2 sequence (P19793 1-462 partner): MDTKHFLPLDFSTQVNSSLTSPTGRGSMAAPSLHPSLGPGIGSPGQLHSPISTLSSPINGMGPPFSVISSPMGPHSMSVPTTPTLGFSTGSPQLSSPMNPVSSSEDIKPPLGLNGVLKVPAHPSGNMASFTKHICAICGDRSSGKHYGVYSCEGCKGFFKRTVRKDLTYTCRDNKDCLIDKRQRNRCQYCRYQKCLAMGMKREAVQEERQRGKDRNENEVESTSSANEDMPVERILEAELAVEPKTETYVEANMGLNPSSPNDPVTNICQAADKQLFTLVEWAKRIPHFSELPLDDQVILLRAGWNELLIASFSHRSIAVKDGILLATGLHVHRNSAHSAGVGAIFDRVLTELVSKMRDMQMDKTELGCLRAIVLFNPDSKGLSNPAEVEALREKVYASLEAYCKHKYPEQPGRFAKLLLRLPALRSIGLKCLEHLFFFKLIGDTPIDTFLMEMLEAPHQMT
Briefly: Luciferase transactivation assay in transfected HepG2 cells. It counts as cell-based. The following applies: ammonium salt.

Series [11] concerns pancreatic esterases (pancreatin). In words: Metabolic stability in simulated duodenal/pancreatic fluid (USP). It is filed as in vitro ADME, porcine.
Procedure: Simulated pancreatic fluid was prepared by dissolving 10 g/L Pancreatin (Sigma P8096: pancreatin from porcine pancreas, activity 1×USP specifications) in 0.05M phosphate buffer, pH=7.2±0.1. […] After incubation, a 2-mL aliquot of each solution was added with 2 mL of 0.1M NaOH and subjected to bile acids extraction by SPE and analysis by thin-layer chromatography and mass spectrometry as described above.
For series [12] the following is noted: pH 1.
Procedure: as §2
For series [13] the following is noted: pH 8.
Procedure: as §1
The mark [14] stands for this setting: 5 mg/kg intraperitoneal, ammonium salt.

Molecules are shown by their SMILES. ≈ marks a conversion by molar mass, not a printed value. Entries after “also recorded” stand apart in the source; their conditions may differ. Counter-ions that a name gives are not always drawn. Like-named read-outs stand apart in the source and are kept apart here. Marks after values point to notes of the source that are not given here. Bounds are passed on as bounds.

T1 sequence (P02769 25-607): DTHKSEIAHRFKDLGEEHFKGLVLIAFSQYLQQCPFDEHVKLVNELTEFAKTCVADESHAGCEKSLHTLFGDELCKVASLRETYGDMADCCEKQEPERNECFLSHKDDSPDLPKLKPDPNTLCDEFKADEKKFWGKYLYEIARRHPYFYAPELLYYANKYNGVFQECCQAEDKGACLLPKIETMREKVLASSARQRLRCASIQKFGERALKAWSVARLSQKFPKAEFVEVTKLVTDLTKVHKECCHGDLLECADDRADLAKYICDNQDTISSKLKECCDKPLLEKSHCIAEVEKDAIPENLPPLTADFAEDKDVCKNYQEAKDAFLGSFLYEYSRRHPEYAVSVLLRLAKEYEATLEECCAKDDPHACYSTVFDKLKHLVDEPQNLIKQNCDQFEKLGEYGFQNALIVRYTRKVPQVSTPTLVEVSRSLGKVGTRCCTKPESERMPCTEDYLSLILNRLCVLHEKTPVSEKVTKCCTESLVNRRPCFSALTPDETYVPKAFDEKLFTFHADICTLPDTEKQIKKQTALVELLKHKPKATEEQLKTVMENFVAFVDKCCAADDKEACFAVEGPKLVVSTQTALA
Procedure for bovine serum albumin: Albumin binding was evaluated by equilibrium dialysis at a fixed BA-albumin ratio. BA was dissolved at a concentration of 100 μM in 5% bovine serum albumin-saline solution and left to stand for 24 h at 25° C. Two ml of this solution was dialyzed in cellulose sacs having a molecular weight cut-off of 12-14,000 against 25 ml of saline solution. The system was equilibrated by mechanical shaking for 72 h at 25° C. BA concentrations of the dialyzed solution and of the starting solution were determined with HPLC-ESI-MS/MS in the same conditions of the previous analysis.

Regarding `C[C@H](CCC(=O)NCCS(=O)(=O)O)[C@H]1CC[C@H]2[C@@H]3[C@@H](O)C[C@@H]4C[C@H](O)CC[C@]4(C)[C@H]3CC[C@]12C` [TUDCA], the “LogPA− (1-octanol-water partition coefficient, ionized species)” value (“LogPA−” for short) in series [1] was 1.0*. Besides, in [2], the “CMC NaCl 0.15M” value is 2.2* mM and the “CMC H2O” value is reported as 8.0* mM. In addition, the “% Binding (albumin)” value on bovine serum albumin amounted to 67%.
For the compound `C[C@H](CCC(=O)O)[C@H]1CC[C@H]2[C@@H]3[C@H](O)C[C@@H]4C[C@H](O)CC[C@]4(C)[C@H]3CC[C@]12C` [CDCA, chenodeoxycholic acid], the “CMpH (critical micellar pH)” value in “Critical micellar pH” is reported as 7.6. The Half-life time result in series [3] (human stool cultures) is listed as “one”. Moreover, the “Metabolism (7-dehydroxylation to lithocholic acid)” value in [3] (human stool cultures, after 8 hours of incubation) is given as “almost completely metabolized”. Further, in series [4], the “ST50: Surface Tension of 50 mM aqueous solution” value (shortened to “ST50: Surface Tension”) was found to be 48.5 Dyne/cm, the “STCMC: Surface Tension at CMC in water” value stood at 55.6 Dyne/cm, the “CMC NaCl 0.15M” value amounted to 3.0 mM and the “CMC H2O” value amounted to 7.5 mM. Besides, the “% Binding (albumin)” value at bovine serum albumin came out at 93%. In addition, the “LogPA−” value in [5] was determined as 2.2.
Regarding `C[C@H](CCC(=O)NCCS(=O)(=O)O)[C@H]1CC[C@H]2[C@@H]3[C@H](O)C[C@@H]4C[C@H](O)CC[C@]4(C)[C@H]3CC[C@]12C` [TCDCA], in series [2], the “CMC NaCl 0.15M” value is 3.0* mM and the “CMC H2O” value is listed as 7.0* mM. Also, in [5], the “LogPA−” value is recorded as 0.9.
On to `CC[C@H]1[C@@H](O)[C@@H]2[C@H](CC[C@]3(C)[C@@H]([C@H](C)CCC(=O)O)CC[C@@H]23)[C@@]2(C)CC[C@@H](O)C[C@@H]12` [INT-747, 3α,7α-dihydroxy-6α-ethyl-5β-cholan-24-oic acid], for which, in the series with ANIT-induced cholestasis [6], the “Reduction of liver injury in ANIT model” value is given as “not effective”. In series [7], the solubility at 1 week was 9 µM (≈ 3.79 µg/mL). For the same compound, the “CMpH (critical micellar pH)” value in the series “Critical micellar pH” stood at 7.6. For the same compound, the “CMpH (critical micellar pH)” value in the series “Critical micellar pH” (listed as UPF 747) came out at 7.7. Moreover, in [3], the “Stability in human stool cultures” value was “very stable”. Moreover, in series [4], the “ST50: Surface Tension” value was determined as 43.2 Dyne/cm, the “STCMC: Surface Tension at CMC in water” value was determined as 48.8 Dyne/cm, the “CMC NaCl 0.15M” value is on record as 2.9 mM and the “CMC H2O” value stood at 4.5 mM. Further, the “Concentration at which a gel phase forms” value in series [4] (in the presence of Na+ 0.15 M) is > 60000 µM. Also, the “Main form / hepatic metabolite secreted in bile” value in series [8] is “taurine conjugate”. Moreover, at bovine serum albumin, the “% Binding (albumin)” value turned out to be 96%. Besides, in series [5], the “LogPA−” value amounted to 2.5.
With `CC[C@H]1[C@@H](O)C2C3CCC(C(C)CCOS(=O)(=O)O)[C@@]3(C)CCC2[C@@]2(C)CC[C@@H](O)C[C@@H]12` (stereo partly drawn) [UPF-987, 3α,7α,23-trihydroxy-6α-ethyl-24-nor-5β-cholan-23-sulphate triethyl ammonium salt], in series [9] (setting [14]), the “Liver BSEP expression” value is on record as “potent induction; also recorded: induces liver” and the “Liver SHP expression” value is on record as “potent induction; also recorded: induces liver”. Further, the “Downregulation of liver Cyp7a1” value in series [9] (5 mg/kg) was 60-70%. The “Liver FAS mRNA expression” value in [9] (5 mg/kg, ammonium salt) is listed as “reduced”. Moreover, the inhibition at 5 mg/kg in series [9] (Mus musculus, 96 h, read-out: Inhibition of liver SREBP-1c) was determined as 90%. The “Liver injury / cholestasis (plasma AST, γGT, alkaline phosphatase, cholesterol)” value in the series with ANIT-induced cholestasis [10] (UPF-987 5 and 3 mg/kg daily) is reported as “attenuates liver injury; also recorded: reduces ANIT”. Besides, the “Liver expression of NTCP, CYP7A1 and BSEP” value in the series with ANIT-induced cholestasis [10] is listed as “modulates liver”. Besides, on FXR, the “Transactivation of FXR” value is on record as “transactivates FXR”.
Take `CC[C@H]1[C@@H](O)C2C3CCC(C(C)CCOS(=O)(=O)[O-])[C@@]3(C)CCC2[C@@]2(C)CC[C@@H](O)C[C@@H]12.[Na+]` (stereo partly drawn) [INT-1103, 3α,7α,23-trihydroxy-6α-ethyl-24-nor-5β-cholan-23-sulphate sodium salt]: the “Stability in human stool cultures” value in series [3] is recorded as “very stable”. Moreover, in [4], the “ST50: Surface Tension” value is on record as 43.3 Dyne/cm, the “STCMC: Surface Tension at CMC in water” value is on record as 47.9 Dyne/cm, the “CMC NaCl 0.15M” value was found to be 1.3 mM and the “CMC H2O” value was 3.9 mM. In addition, the “Main form / hepatic metabolite secreted in bile” value in series [8] is 3-glucoronide. In [8] (iv infusion 3 umol/Kg/min, bile collected 7 hours), the “Amount of administered dose secreted into bile” value is 30-40%. Also, the “Stability in simulated pancreatic fluid” value in series [11] (50 μM, 37° C., up to 240 min) is recorded as “very stable”. Moreover, the “Hydrolysis of ester bond (sulphate) by pancreatic esterases” value in series [11] (simulated pancreatic fluid) is reported as “not hydrolyzed”. Also, on bovine serum albumin, the “% Binding (albumin)” value was found to be 85%. For the same compound, the “LogPA−” value in series [5] is 2.0.
On to `C[C@H](CCC(=O)O)[C@H]1CC[C@H]2[C@@H]3[C@@H](O)C[C@@H]4C[C@H](O)CC[C@]4(C)[C@H]3CC[C@]12C` [UDCA], for which the “Water Solubility” value in [12] turned out to be 7.5 µM. Further, in “Critical micellar pH”, the “CMpH (critical micellar pH)” value is recorded as 8.4. In addition, in [4], the “ST50: Surface Tension” value is given as 50.4 Dyne/cm, the “STCMC: Surface Tension at CMC in water” value is listed as 63.0 Dyne/cm, the “CMC NaCl 0.15M” value is on record as 6.0 mM and the “CMC H2O” value was 26 mM. For the same compound, in series [13], the “LogPA−” value is on record as 2.2. Further, the “% Binding (albumin)” value on bovine serum albumin amounted to 94%.

The values are drawn from patent US9090652B2, “Bile acid derivatives as FXR ligands for the prevention or treatment of FXR-mediated diseases or conditions” (Intercept Pharmaceuticals, Inc., priority 2006, dated 2015).
